From US20050142169A1, “Palatability enhanced composition and method for animal consumption” (priority 2003, published 2005)

Key:
dogs = assay: two-bowl preference test, Example 4 (Canine w/d, 2.4% test flavor); format: in vivo, dog; settings: dry wt. of kibble, test flavor 2.4%
Procedure: The experiment comprised mixing various amounts of 2,5-dimethyl-4-hydroxy-3(2H)-furanone with a commercial liquid palatant enhancer as a carrier to form a test flavor. Each of the test flavors (2.4%, dry weight basis) was topically applied to a dry, commercial dog food (Canine w/d from Hill's Pet Nutrition, Inc.) after application of a commercial dry palatant enhancer in choice white grease (0.6%, dry weight basis) to form a test composition. […] The control compositions were prepared by topically applying the commercial liquid palatant enhancer (2.4% dry weight basis) to the dry, commercial dog food (Canine w/d) after application of a commercial dry palatant enhancer in choice white grease (0.6%, dry weight basis). Palatability was determined by comparing the test composition and the control composition in a standard two-bowl preference test over two days with 20 dogs as described in Example 1.

cats = assay: two-bowl preference test, Example 6 (Feline w/d); format: in vivo, cat; settings: dry wt. of kibble
From the text: Finally, a commercial dry palatant enhancer (1.4% dry weight basis) was topically applied to the dry kibbles to complete the test composition.

[1] = Exp. No. 6, second set of experiments, 87.1 ppm
[2] = Exp. No. 7, second set of experiments, 130.5 ppm
[3] = Exp. No. 8, second set of experiments, 174.0 ppm
[4] = Exp. No. 9, second set of experiments, 217.5 ppm
[5] = Exp. No. 10, second set of experiments, 282.8 ppm

CC1=C(O)C(=O)C(C)O1 (centres unmarked) [2,5-dimethyl-4-hydroxy-3(2H)-furanone]
Intake Ratio (dogs; Exp. No. 1, 87.1 ppm): 0.6939
Preference (%) control composition (dogs; Exp. No. 1, 87.1 ppm): 16.0%
Preference (%) test composition (dogs; Exp. No. 1, 87.1 ppm): 76.0%
Status (vs. control) (dogs; Exp. No. 1, 87.1 ppm): Win
Intake Ratio (dogs; Exp. No. 2, 130.5 ppm): 0.6616
Preference (%) control composition (dogs; Exp. No. 2, 130.5 ppm): 28.0%
Preference (%) test composition (dogs; Exp. No. 2, 130.5 ppm): 72.0%
Status (vs. control) (dogs; Exp. No. 2, 130.5 ppm): Win
Intake Ratio (dogs; Exp. No. 3, 174.0 ppm): 0.6947
Preference (%) control composition (dogs; Exp. No. 3, 174.0 ppm): 24.0%
Preference (%) test composition (dogs; Exp. No. 3, 174.0 ppm): 76.0%
Status (vs. control) (dogs; Exp. No. 3, 174.0 ppm): Win
Intake Ratio (dogs; Exp. No. 4, 217.5 ppm): 0.7773
Preference (%) control composition (dogs; Exp. No. 4, 217.5 ppm): 8.0%
Preference (%) test composition (dogs; Exp. No. 4, 217.5 ppm): 92.0%
Status (vs. control) (dogs; Exp. No. 4, 217.5 ppm): Win
Intake Ratio (dogs; Exp. No. 5, 282.8 ppm): 0.8079
Preference (%) control composition (dogs; Exp. No. 5, 282.8 ppm): 8.3%
Preference (%) test composition (dogs; Exp. No. 5, 282.8 ppm): 87.5%
Status (vs. control) (dogs; Exp. No. 5, 282.8 ppm): Win
Intake Ratio (dogs; [1]): 0.6058
Preference (%) control composition (dogs; [1]): 40.0%
Preference (%) test composition (dogs; [1]): 60.0%
Status (vs. control) (dogs; [1]): Win
Intake Ratio (dogs; [2]): 0.6857
Preference (%) control composition (dogs; [2]): 24.0%
Preference (%) test composition (dogs; [2]): 76.0%
Status (vs. control) (dogs; [2]): Win
Intake Ratio (dogs; [3]): 0.5568
Preference (%) control composition (dogs; [3]): 40.0%
Preference (%) test composition (dogs; [3]): 56.0%
Status (vs. control) (dogs; [3]): Parity
Intake Ratio (dogs; [4]): 0.5453
Preference (%) control composition (dogs; [4]): 40.0%
Preference (%) test composition (dogs; [4]): 60.0%
Status (vs. control) (dogs; [4]): Parity
Intake Ratio (dogs; [5]): 0.7429
Preference (%) control composition (dogs; [5]): 16.0%
Preference (%) test composition (dogs; [5]): 84.0%
Status (vs. control) (dogs; [5]): Win
Intake Ratio (cats; Exp. No. 1, 1 ppm): 0.7653
Preference (%) control composition (cats; Exp. No. 1, 1 ppm): 20.0%
Preference (%) test composition (cats; Exp. No. 1, 1 ppm): 80.0%
Status (vs. control) (cats; Exp. No. 1, 1 ppm): Win
Intake Ratio (cats; Exp. No. 2, 2 ppm): 0.8280
Preference (%) control composition (cats; Exp. No. 2, 2 ppm): 17.6%
Preference (%) test composition (cats; Exp. No. 2, 2 ppm): 82.6%
Status (vs. control) (cats; Exp. No. 2, 2 ppm): Win
Intake Ratio (cats; Exp. No. 3, 3 ppm): 0.9457
Preference (%) control composition (cats; Exp. No. 3, 3 ppm): 4.3%
Preference (%) test composition (cats; Exp. No. 3, 3 ppm): 95.7%
Status (vs. control) (cats; Exp. No. 3, 3 ppm): Win
Intake Ratio (cats; Exp. No. 4, 4 ppm): 0.8426
Preference (%) control composition (cats; Exp. No. 4, 4 ppm): 16.0%
Preference (%) test composition (cats; Exp. No. 4, 4 ppm): 84.0%
Status (vs. control) (cats; Exp. No. 4, 4 ppm): Win
Intake Ratio (cats; Exp. No. 5, 5 ppm): 0.8957
Preference (%) control composition (cats; Exp. No. 5, 5 ppm): 11.1%
Preference (%) test composition (cats; Exp. No. 5, 5 ppm): 88.9%
Status (vs. control) (cats; Exp. No. 5, 5 ppm): Win
Intake Ratio (cats; Exp. No. 6, 10 ppm): 0.8596
Preference (%) control composition (cats; Exp. No. 6, 10 ppm): 4.2%
